Ki data for 13 molecules are collected here from patent publication US9260425B2 (Genetech, Inc., priority 2011, dated 2016).

Each structure is given as a SMILES string.

This experiment has as its target Pim-1 (Homo sapiens (Human), UniProt P11309). The experiment in a line: Pim kinase binding activity assay (Example 901), PIM-1 enzyme, Caliper microfluidic peptide phosphorylation. In kind it is biochemical. The settings on record: 20 pM PIM-1, 10 μM ATP, 1 μM FAM-peptide, 90 minutes at room temperature. The essentials: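 PIM-1 at 20 pM phosphorylated 1 μM FAM-labelled Pim peptide with 10 μM ATP in HEPES pH 7.2, MgCl2, Tween 20 and DTT for 90 min at room temperature. EDTA stopped the reaction, and product and substrate were resolved by microfluidic electrophoresis (ex 488/em 530 nm). Ki was derived from substrate conversion.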

Chain of Pim-1 (P11309 whole entry): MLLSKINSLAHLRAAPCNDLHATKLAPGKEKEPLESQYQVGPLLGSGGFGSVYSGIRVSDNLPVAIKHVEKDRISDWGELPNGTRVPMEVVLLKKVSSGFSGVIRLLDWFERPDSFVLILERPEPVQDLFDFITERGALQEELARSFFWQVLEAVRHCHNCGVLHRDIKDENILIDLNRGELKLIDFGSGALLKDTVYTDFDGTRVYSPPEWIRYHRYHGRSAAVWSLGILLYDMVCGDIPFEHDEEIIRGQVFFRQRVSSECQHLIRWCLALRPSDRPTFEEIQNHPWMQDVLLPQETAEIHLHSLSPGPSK

One may read the Ki as a dissociation constant, usually derived from enzyme kinetics or from competition with a known ligand. A high value points to a looser hold on the target. In turn, `C=C(C)c1ccc(-c2n[nH]c3cnc(-c4cnn(CC)c4)cc23)nc1N1CCC[C@H](N)C1` [Example 427, (S)-1-(6-(5-(1-ethyl-1H-pyrazol-4-yl)-1H-pyrazolo[3,4-c]pyridin-3-yl)-3-(prop-1-en-2-yl)pyridin-2-yl)piperidin-3-amine] showed a Ki of 0.016 nM.

Regarding `Cc1ccc(-c2n[nH]c3cnc(-c4cnn(C)c4)cc23)nc1N1CCN(CCS(C)(=O)=O)C(C)(C)C1` [Example 428, 3-(6-(3,3-dimethyl-4-(2-(methylsulfonyl)ethyl)piperazin-1-yl)-5-methylpyridin-2-yl)-5-(1-methyl-1H-pyrazol-4-yl)-1H-pyrazolo[3,4-c]pyridine], the Ki came out at 0.112 nM. For `CCc1ccc(-c2n[nH]c3cnc(-c4cnn(C)c4)cc23)nc1N1CCC[C@H](N)C1` [Example 429, (S)-1-(3-ethyl-6-(5-(1-methyl-1H-pyrazol-4-yl)-1H-pyrazolo[3,4-c]pyridin-3-yl)pyridin-2-yl)piperidin-3-amine] the value was 0.022 nM; for `CCn1cc(-c2cc3c(-c4ccc(C)c(N5CCC[C@H](N)C5)n4)n[nH]c3cn2)cn1` [Example 430, (S)-1-(6-(5-(1-ethyl-1H-pyrazol-4-yl)-1H-pyrazolo[3,4-c]pyridin-3-yl)-3-methylpyridin-2-yl)piperidin-3-amine], 0.027 nM. For `C=Cc1ccc(-c2n[nH]c3cnc(-c4cnn(CC)c4)cc23)nc1N1CCC[C@H](N)C1` [Example 431, (S)-1-(6-(5-(1-ethyl-1H-pyrazol-4-yl)-1H-pyrazolo[3,4-c]pyridin-3-yl)-3-vinylpyridin-2-yl)piperidin-3-amine] the value was 0.023 nM. The result for `CCn1cc(-c2cc3c(-c4ccc(C)c(N5CCNCC5)n4)n[nH]c3cn2)cn1` [Example 432, 5-(1-ethyl-1H-pyrazol-4-yl)-3-(5-methyl-6-(piperazin-1-yl)pyridin-2-yl)-1H-pyrazolo[3,4-c]pyridine] reads 0.055 nM; that for `Cc1ccc(-c2n[nH]c3cnc(-c4cnn(C)c4)cc23)nc1N1CCC[C@H](N)C1` [Example 433, (S)-1-(3-methyl-6-(5-(1-methyl-1H-pyrazol-4-yl)-1H-pyrazolo[3,4-c]pyridin-3-yl)pyridin-2-yl)piperidin-3-amine], 0.013 nM.

As to `OC1CN(c2cccc(-c3n[nH]c4cnc(-c5cccnc5)cc34)n2)CCC1F` (stereo not shown) [Example 435, 4-fluoro-1-(6-(5-(pyridin-3-yl)-1H-pyrazolo[3,4-c]pyridin-3-yl)pyridin-2-yl)piperidin-3-ol], the Ki turned out to be 0.089 nM. For `COc1cncc(-c2cc3c(-c4cccc(N5CCNCC5)n4)n[nH]c3cn2)c1` [Example 436, 5-(5-methoxypyridin-3-yl)-3-(6-(piperazin-1-yl)pyridin-2-yl)-1H-pyrazolo[3,4-c]pyridine] the value was 0.021 nM. Take `CNc1cccc(-c2n[nH]c3cnc(-c4cccnc4)cc23)n1` [Example 437, N-methyl-6-(5-(pyridin-3-yl)-1H-pyrazolo[3,4-c]pyridin-3-yl)pyridin-2-amine]: the Ki is 0.409 nM. In turn, `CCc1cncc(-c2cc3c(-c4cccc(N5CCNCC5)n4)n[nH]c3cn2)c1` [Example 438, 5-(5-ethylpyridin-3-yl)-3-(6-(piperazin-1-yl)pyridin-2-yl)-1H-pyrazolo[3,4-c]pyridine] yielded a Ki of 0.004 nM. The result for `Cn1cc(-c2cc3c(-c4ccnc(C5CCNCC5)n4)n[nH]c3cn2)cn1` [Example 439, 5-(1-methyl-1H-pyrazol-4-yl)-3-(2-(piperidin-4-yl)pyrimidin-4-yl)-1H-pyrazolo[3,4-c]pyridine] reads 0.571 nM; that for `Cc1ccc(-c2n[nH]c3cnc(-c4cnn(C)c4)cc23)nc1N1CCN(C)CC1` [Example 440, 5-(1-methyl-1H-pyrazol-4-yl)-3-(5-methyl-6-(4-methylpiperazin-1-yl)pyridin-2-yl)-1H-pyrazolo[3,4-c]pyridine], 0.029 nM.
